Experimental data from patent US9149440B2, “Nanoparticles for drug-delivery” (UNIVERSITY OF SOUTH FLORIDA, priority 2003, dated 2015).

Experiments:
[1] = test system: C. parapsilosis (ATCC 22019); assay: Antifungal agar well diffusion, zones of inhibition; type: cell-based; settings: Lodderomyces parapsilosis, ATCC22019; 50 μg, 48 hours; read-out: zone of growth inhibition, standard
[2] = test system: C. lusitaniae (ATCC 34449); assay: as above; type: cell-based; settings: Clavispora lusitaniae, ATCC34449; 50 μg, 48 hours; read-out: zone of growth inhibition, standard
Experimental: (§1) Antifungal testing of these nanoparticles was performed by Kirby-Bauer disc diffusion on agar plates against eight genera of fungi.

C. utilis (ATCC 29950) = assay: as above; type: cell-based; settings: Williopsis jadinii, ATCC29950; 50 μg, 48 hours; read-out: zone of growth inhibition, standard
Experimental: as §1

C. albicans = assay: as above; type: cell-based; settings: Candida albicans; 50 μg, 48 hours; read-out: zone of growth inhibition, standard
Experimental: as §1

C. glabrata (ATCC 15126) = assay: as above; type: cell-based; settings: Nakaseomyces glabratus, ATCC15126; 50 μg, 48 hours; read-out: zone of growth inhibition, standard
C. kefyr = assay: as above; type: cell-based; settings: Kluyveromyces marxianus; 50 μg, 48 hours; read-out: zone of growth inhibition, standard
C. tropicalis = assay: as above; type: cell-based; settings: Candida tropicalis; 50 μg, 48 hours; read-out: zone of growth inhibition, standard
C. krusei (ATCC 14243) = assay: as above; type: cell-based; settings: Pichia kudriavzevii, ATCC14243; 50 μg, 48 hours; read-out: zone of growth inhibition, standard
Water solubility = type: physicochemical

## Clc1ccccc1C(c1ccccc1)(c1ccccc1)n1ccnc1 [clotrimazole]
[1]
  zone of inhibition at 50 µg/disc: 32 mm
[2]
  zone of inhibition at 50 µg/disc: 25 mm
C. utilis (ATCC 29950)
  zone of inhibition at 50 µg/disc: 24 mm
C. albicans
  zone of inhibition at 50 µg/disc: 20 mm
C. glabrata (ATCC 15126)
  zone of inhibition at 50 µg/disc: 14 mm
C. kefyr
  zone of inhibition at 50 µg/disc: 37 mm
C. tropicalis
  zone of inhibition at 50 µg/disc: 20 mm
C. krusei (ATCC 14243)
  zone of inhibition at 50 µg/disc: 27 mm

## C=CC(=O)OC(C)OC(=O)c1c2ccccc2cc2ccccc12 (stereo not shown)
other
  melting point: 66 to 68 °C

## C=CC(=O)C1C(=O)N(SC)C1c1ccccc1Cl (racemic) [N-methylthiolated β-lactam, 3-acryloyl-N-methylthio-4-(2-chlorophenyl)-2-azetidinone]
Water solubility
  water solubility: water-insoluble
